According to paper PMC2896053 (Pharmaceutical research, 2009):
Entries after “also recorded” stand apart in the source; their conditions may differ. Counter-ions that a name gives are not always drawn.

How the values were obtained:
[1] = test system: BBB transport of 125I-ANG1005; assay: brain 125I-ANG1005 uptake with co-perfused transport inhibitors; type: in vivo, rat; conditions: P>0.05
[2] = cited from earlier work
[3] = test system: brain endothelial monolayer system; conditions: cited from earlier work
[4] = target: low density lipoprotein receptor-related protein (LRP) (Rattus norvegicus, UniProt G3V928); assay: brain 125I-ANG1005 uptake with co-perfused unlabeled angiopep-2 or LRP ligands; type: in vivo; conditions: co-perfusion 120 s with 10 or 100 μM unlabeled angiopep-2, P<0.05
Chain of low density lipoprotein receptor-related protein (LRP) (G3V928 20-3944 limits assumed): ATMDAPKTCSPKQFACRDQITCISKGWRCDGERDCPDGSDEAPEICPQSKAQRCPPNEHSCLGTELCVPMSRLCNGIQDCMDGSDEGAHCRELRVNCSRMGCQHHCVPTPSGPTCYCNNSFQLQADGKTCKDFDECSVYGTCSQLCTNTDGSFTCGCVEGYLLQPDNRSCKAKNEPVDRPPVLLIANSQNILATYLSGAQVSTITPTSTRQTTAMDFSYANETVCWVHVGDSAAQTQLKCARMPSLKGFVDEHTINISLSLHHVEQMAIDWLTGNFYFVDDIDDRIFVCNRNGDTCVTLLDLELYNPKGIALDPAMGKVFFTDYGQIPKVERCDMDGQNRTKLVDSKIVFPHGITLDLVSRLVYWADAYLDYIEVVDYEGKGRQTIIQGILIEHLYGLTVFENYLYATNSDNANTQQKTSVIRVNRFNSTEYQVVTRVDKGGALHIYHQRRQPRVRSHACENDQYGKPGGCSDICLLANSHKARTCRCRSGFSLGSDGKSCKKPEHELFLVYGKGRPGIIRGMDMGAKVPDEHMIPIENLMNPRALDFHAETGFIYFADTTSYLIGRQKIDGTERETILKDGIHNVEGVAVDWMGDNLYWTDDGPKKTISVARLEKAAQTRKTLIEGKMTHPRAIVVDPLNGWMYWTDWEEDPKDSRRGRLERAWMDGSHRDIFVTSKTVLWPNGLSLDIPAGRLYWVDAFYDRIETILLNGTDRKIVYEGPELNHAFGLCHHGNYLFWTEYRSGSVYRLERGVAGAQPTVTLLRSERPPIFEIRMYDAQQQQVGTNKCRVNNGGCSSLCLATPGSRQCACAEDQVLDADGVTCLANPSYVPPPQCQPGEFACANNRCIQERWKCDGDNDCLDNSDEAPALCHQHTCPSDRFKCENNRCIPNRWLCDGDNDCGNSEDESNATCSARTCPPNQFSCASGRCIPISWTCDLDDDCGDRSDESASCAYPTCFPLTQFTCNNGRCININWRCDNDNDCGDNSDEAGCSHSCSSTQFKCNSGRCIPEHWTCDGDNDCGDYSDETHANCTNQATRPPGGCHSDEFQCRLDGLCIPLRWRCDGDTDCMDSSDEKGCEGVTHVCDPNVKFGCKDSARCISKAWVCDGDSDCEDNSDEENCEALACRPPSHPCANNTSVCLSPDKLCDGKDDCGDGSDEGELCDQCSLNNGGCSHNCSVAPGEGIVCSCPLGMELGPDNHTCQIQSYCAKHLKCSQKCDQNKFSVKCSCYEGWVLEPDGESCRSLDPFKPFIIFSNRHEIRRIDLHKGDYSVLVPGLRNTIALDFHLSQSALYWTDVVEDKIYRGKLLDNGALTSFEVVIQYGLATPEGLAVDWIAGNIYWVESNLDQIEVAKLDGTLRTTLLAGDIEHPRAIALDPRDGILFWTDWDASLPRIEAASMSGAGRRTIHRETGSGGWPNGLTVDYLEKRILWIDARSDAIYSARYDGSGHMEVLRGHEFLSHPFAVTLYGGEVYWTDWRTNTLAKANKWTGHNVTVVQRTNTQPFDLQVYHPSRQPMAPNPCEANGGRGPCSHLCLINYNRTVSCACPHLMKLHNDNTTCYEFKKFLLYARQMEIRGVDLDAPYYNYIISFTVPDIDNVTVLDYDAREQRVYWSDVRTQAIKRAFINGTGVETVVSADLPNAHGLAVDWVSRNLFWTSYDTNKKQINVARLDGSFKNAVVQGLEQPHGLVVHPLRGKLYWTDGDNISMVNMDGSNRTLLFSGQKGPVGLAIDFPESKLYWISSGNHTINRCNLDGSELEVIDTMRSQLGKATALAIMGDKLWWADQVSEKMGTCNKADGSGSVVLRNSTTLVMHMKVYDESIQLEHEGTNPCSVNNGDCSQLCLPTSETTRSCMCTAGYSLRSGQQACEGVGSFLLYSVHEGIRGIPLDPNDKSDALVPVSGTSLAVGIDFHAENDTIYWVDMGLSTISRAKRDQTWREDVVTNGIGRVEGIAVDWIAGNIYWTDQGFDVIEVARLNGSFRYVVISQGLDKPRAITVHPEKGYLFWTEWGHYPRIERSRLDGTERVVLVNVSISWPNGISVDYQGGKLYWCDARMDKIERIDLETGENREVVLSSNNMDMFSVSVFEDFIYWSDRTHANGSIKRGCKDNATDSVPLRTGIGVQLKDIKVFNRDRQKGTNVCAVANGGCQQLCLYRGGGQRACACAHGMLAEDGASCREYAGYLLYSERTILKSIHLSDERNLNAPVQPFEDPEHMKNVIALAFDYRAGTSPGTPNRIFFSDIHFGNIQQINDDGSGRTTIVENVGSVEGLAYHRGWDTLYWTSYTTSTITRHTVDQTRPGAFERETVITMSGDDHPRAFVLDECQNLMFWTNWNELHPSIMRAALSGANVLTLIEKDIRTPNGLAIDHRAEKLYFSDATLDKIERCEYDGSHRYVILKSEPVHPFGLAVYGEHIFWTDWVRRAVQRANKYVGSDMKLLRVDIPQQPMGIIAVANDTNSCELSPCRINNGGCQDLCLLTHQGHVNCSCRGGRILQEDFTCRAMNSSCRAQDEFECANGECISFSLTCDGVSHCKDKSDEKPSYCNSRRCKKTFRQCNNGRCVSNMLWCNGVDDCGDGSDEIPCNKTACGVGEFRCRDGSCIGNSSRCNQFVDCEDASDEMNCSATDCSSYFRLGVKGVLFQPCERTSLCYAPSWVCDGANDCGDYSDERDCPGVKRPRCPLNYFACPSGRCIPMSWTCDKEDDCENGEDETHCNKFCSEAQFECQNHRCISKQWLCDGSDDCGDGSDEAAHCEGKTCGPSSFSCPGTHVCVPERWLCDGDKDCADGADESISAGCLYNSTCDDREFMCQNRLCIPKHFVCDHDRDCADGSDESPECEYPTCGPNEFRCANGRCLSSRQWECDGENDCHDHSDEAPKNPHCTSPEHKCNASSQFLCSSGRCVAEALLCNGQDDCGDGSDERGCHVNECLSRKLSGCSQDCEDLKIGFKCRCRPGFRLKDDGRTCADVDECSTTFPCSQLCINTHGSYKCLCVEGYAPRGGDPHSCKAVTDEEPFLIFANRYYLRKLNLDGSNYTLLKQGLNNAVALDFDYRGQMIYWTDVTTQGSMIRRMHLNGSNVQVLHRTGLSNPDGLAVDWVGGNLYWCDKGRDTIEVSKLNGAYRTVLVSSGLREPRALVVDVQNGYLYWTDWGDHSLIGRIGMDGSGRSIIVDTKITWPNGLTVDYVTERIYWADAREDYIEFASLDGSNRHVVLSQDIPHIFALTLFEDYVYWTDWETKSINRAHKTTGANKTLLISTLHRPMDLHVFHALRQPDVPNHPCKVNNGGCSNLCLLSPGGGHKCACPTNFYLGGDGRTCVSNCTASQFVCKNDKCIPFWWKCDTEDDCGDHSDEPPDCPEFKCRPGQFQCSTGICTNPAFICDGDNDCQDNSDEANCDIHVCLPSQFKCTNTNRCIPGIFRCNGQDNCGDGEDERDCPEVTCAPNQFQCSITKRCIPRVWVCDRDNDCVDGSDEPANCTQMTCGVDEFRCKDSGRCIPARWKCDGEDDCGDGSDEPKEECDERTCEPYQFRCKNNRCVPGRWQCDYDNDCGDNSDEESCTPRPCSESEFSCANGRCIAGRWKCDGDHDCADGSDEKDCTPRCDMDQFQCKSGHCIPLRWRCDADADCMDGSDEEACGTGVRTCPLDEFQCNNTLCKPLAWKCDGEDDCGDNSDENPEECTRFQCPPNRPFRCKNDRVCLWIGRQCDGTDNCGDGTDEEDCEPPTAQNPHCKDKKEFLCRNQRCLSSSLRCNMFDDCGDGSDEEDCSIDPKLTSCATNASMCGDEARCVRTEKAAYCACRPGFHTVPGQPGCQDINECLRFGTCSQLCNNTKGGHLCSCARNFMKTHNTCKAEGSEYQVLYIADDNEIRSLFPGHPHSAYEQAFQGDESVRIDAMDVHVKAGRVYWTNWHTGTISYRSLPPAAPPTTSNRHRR
Chain of low density lipoprotein receptor-related protein (LRP) (G3V928 3945-4545 limits assumed): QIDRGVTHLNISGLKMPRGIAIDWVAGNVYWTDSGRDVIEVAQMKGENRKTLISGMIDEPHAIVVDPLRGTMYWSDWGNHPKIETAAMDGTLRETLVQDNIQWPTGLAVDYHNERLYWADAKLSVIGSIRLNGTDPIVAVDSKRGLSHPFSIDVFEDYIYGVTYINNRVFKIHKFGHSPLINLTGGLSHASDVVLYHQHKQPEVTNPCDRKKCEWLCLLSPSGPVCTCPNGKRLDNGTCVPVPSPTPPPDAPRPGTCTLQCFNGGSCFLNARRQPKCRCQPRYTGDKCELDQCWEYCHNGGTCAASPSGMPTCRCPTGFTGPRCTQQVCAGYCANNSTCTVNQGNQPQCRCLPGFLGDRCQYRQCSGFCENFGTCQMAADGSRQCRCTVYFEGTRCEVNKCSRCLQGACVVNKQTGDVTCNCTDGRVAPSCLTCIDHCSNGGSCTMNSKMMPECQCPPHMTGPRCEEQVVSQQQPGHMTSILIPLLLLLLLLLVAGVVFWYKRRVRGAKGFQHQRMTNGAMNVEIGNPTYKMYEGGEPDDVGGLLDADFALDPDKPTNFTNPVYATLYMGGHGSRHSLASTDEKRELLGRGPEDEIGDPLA

[5] = capillary depletion after in situ brain perfusion; type: in vivo, rat; conditions: 120 s perfusion, 30 s post wash
[6] = in situ rat brain perfusion, BBB transfer coefficient; conditions: P>0.05
[7] = male, Sprague Dawley, rat, in vivo
[8] = female, NuNu, mouse, in vivo, 30 min
[9] = cited from earlier work; remark: listed apart in the source

## poly-L-lysine
[1]; co-perfusion with poly-l-lysine 25 μM
  effect on Kin for brain uptake of 125I-ANG1005: not inhibited
[1]; co-perfusion with poly-l-lysine 25 μM, listed as poly-l-lysine
  effect on Kin for brain uptake of 125I-ANG1005: None of the four agents produced a statistically significant decrease

## angiopep-2
[2]
  brain uptake by in situ perfusion: improved brain uptake
[3]
  transcytosis across a brain endothelial monolayer system in vitro: enhanced transcytosis
[4]
  reduction of brain 125I-ANG1005 uptake: 30–40%
[5]
  brain tracer in parenchymal fraction: > 70%
  brain tracer in vascular (capillary) pellet: < 30%
[6]
  brain 14C-sucrose space in the presence of the tracer (BBB permeability): not altered from control

## N[C@@H](Cc1ccccc1)C(=O)O [L-phenylalanine]
[1]; co-perfusion with L-phenylalanine 1 mM
  effect on Kin for brain uptake of 125I-ANG1005: None of the four agents produced a statistically significant decrease; also recorded: not inhibited

## OC[C@H]1O[C@@](CO)(O[C@H]2O[C@H](CO)[C@@H](O)[C@H](O)[C@H]2O)[C@@H](O)[C@@H]1O [^14C-sucrose, sucrose]
[7]
  brain vascular volume Vv (brain distribution space of 14C-sucrose): 1.2 ± 0.2 × 10^−2 mL/g

## CN(C)CCCN1c2ccccc2Sc2ccc(Cl)cc21 [chlorpromazine, chlorpromazine hydrochloride]
[1]; co-perfusion with chlorpromazine 100 μM
  effect on Kin for brain uptake of 125I-ANG1005: None of the four agents produced a statistically significant decrease; also recorded: failed to alter

## COc1ccc2c(c1)c(CC(=O)O)c(C)n2C(=O)c1ccc(Cl)cc1 [indomethacin]
[1]; co-perfusion with indomethacin 300 μM
  effect on Kin for brain uptake of 125I-ANG1005: None of the four agents produced a statistically significant decrease; also recorded: failed to alter

## CC(=O)O[C@H]1C(=O)[C@@]2(C)[C@H]([C@H](OC(=O)c3ccccc3)[C@]3(O)C[C@H](OC(=O)[C@H](O)[C@@H](NC(=O)c4ccccc4)c4ccccc4)C(C)=C1C3(C)C)[C@]1(OC(C)=O)CO[C@@H]1C[C@@H]2O [paclitaxel]
[8]
  lowering of brain drug content by vascular correction: ~ 84%
[9]
  rise of brain paclitaxel concentrations on inhibition of active efflux transport: 6–10 fold
[7]
  BBB transfer coefficient (Kin) for brain uptake: 8.5 ± 0.5 × 10^−5 mL/s/g
